In patent US6392055B1, “Synthesis and biological evaluation of analogs of the antimitotic marine natural product curacin A” (The University of Pittsburgh, priority 2000, dated 2002):
Where two headings read alike, the source gives them in different places.

Experiments:
[1] = system: tubulin (colchicine site); assay: Inhibition of [3H]colchicine binding to tubulin; design: species or system bovine; conditions: for Percent Colchicine Binding Inhibition (CBI), 5 μM / % CBI 5 μM, (30° C.) / % CBI 5 μM, 37° C.: 5 μM compound; for Percent Colchicine Binding Inhibition (CBI), 50 μM / % CBI 50 μM, (30° C.) / % CBI 50 μM, 37° C.: 50 μM compound; for Percent Colchicine Binding Inhibition (CBI), 1 μM: 1 μM compound; for % CBI 5 μM, (30° C.) / % CBI 50 μM, (30° C.): 30° C. (values in parentheses); for IC50: 5 μM [3H]colchicine, 1 μM tubulin
Experimental: Assays to determine whether 15mix-17mix inhibited binding of [^3H]colchicine to tubulin at both 30° C. and 37° C. were performed. This was accomplished using methods described previously. Kang, G.-J.; Getahun, Z.; Muzaffar, A.; Brossi, A.; Hamel, E. J. Biol. Chem. 1990, 265, 10255; Verdier-Pinard, P.; Lai, J.-Y.; Yoo, H.-D.; Yu, J.; Marquez, B.; Nagle, D. G.; Nambu, M.; White, J. D.; Falck, J. R.; Gerwick, W. H.; Day, B. W.; Hamel, E. Mol. Pharmacol. 1998, 53, 62. Briefly, 5 μM [^3H]colchicine (2.3 TBq/mmol), drug (1, 5, 10, 50, or 250 μM), or vehicle (DMSO, 5% v/v) were incubated at 30° C. for 15 minutes or at 37° C. for 10 minutes with 1 μM tubulin in the presence of 1 M monosodium glutamate, 0.1 M glucose-1-phosphate, 1 mM MgCl2, 1 mM GTP, and 0.5 mg/mL bovine serum albumin. The solutions were filtered through two stacks of DEAE-cellulose filters and the radioactivity in the filtrate was determined by scintillation spectrometry. Each series of determinations included positive controls of 1, 5, and/or 50 μM curacin A.

[2] = system: isolated bovine brain tubulin; assay: Inhibition of GTP/glutamate-induced tubulin polymerization (turbidimetric, 30° C.); type: biochemical; conditions: for Percent Tubulin Polymerization Inhibition (TPI), 5 μM / % TPI 5 μM: 5 μM compound; for IC50: read-out: 50% Tubulin Polymerization Inhibition Concentration (TPI) IC50, 30° C., 10 μM tubulin
MDA-MB231 cells = assay: Growth inhibition of breast carcinoma cells (MTS); type: cell-based, human
PC-3 cells = assay: Growth inhibition of prostate carcinoma cells (MTS); type: cell-based, human
2008 cells = assay: Growth inhibition of ovarian carcinoma cells (MTS); type: cell-based, human
[3] = 96 h, Table II prints no unit, read-out: GI50 MDA 96 h
[4] = read-out: GI50 MDA 48 h, 48 h, Table II prints no unit
[5] = 96 h, Table II prints no unit, read-out: GI50 PC3 96 h
[6] = read-out: GI50 PC3 48 h, 48 h, Table II prints no unit
[7] = 96 h, Table II prints no unit, read-out: GI50 2008 96 h
[8] = read-out: GI50 2008 48 h, 48 h, Table II prints no unit
[9] = 96 h, read-out: GI50 MDA-MB231 (breast) 96 h
[10] = read-out: GI50 MDA-MB231 (breast) 48 h, 48 h
[11] = 96 h, read-out: GI50 PC3 (prostate) 96 h
[12] = read-out: GI50 PC3 (prostate) 48 h, 48 h
[13] = 96 h, read-out: GI50 2008 (ovarian) 96 h
[14] = read-out: GI50 2008 (ovarian) 48 h, 48 h
[15] = incubation at 30° C. for 15 minutes, read-out: 50% Colchicine Binding Inhibitory Concentration (CBI), 30° C.
[16] = incubation at 37° C. for 10 minutes, read-out: 50% Colchicine Binding Inhibitory Concentration (CBI), 37° C.
[17] = Homo sapiens, MDA-MB-231, 48 h, read-out: GI50 MDA-MB231 (48 h)
[18] = Homo sapiens, PC-3, 48 h, read-out: GI50 PC-3 (48 h)
[19] = Homo sapiens, Ovarian carcinoma cell, 48 h, read-out: GI50 2008 (48 h)

Compound | Percent Colchicine Binding Inhibition (CBI), 5 μM [1] | Percent Colchicine Binding Inhibition (CBI), 50 μM [1] | Percent Tubulin Polymerization Inhibition (TPI), 5 μM [2] | GI50 (MDA-MB231 cells; [3]) | GI50 (MDA-MB231 cells; [4]) | GI50 (PC-3 cells; [5]) | GI50 (PC-3 cells; [6]) | GI50 (2008 cells; [7]) | GI50 (2008 cells; [8]) | Percent Colchicine Binding Inhibition (CBI), 1 μM [1] | also measured
COc1cc(/C=C\CC/C=C/C=C(\C)CCC(O)c2cc3ccccc3s2)cc(OC)c1OC (centres unmarked) [Compound 19CR4] | 5.0 ± 7.4% | 73.0 ± 2.4 % | >100% | 0.221 ± 0.033 µM | 0.243 ± 0.046 µM | 0.634 ± 0.397 µM | 0.933 ± 1.25 µM | 0.268 ± 0.046 µM | 0.314 ± 0.025 µM | – | –
COc1ccc(/C=C\CC/C=C/C=C(\C)CCC(O)c2ccccc2OC)c(OC)c1 (centres unmarked) [Compound 19AR5] | −17.4 ± 7.9 % | −26.1 ± 11.5 % | 34.2% | 15.3 ± 9.8 µM | > 50 µM | > 50 µM | > 50 µM | 24.2 ± 3.9 µM | 30.8 ± 8.7 µM | −3.4 ± 3.2% | –
C=CC[C@@H](CC/C(C)=C/C=C/CC/C=C\c1csc(C(C)(C)C)n1)OC [JRC4] | – | – | – | – | – | – | – | – | – | – | % CBI 5 μM, (30° C.) [1]: (38 ± 2) %; % CBI 5 μM, 37° C. [1]: −21 ± 16%; % CBI 50 μM, (30° C.) [1]: (43 ± 19) %; % CBI 50 μM, 37° C. [1]: 5 ± 13%; % TPI 5 μM [2]: 100%; GI50 (MDA-MB231 cells; [9]): 0.25 ± 0.02 µM; GI50 (MDA-MB231 cells; [10]): 0.32 ± 0.2 µM; GI50 (PC-3 cells; [11]): 0.45 ± 0.09 µM; GI50 (PC-3 cells; [12]): 0.24 ± 0.07 µM; GI50 (2008 cells; [13]): 0.25 ± 0.05 µM; GI50 (2008 cells; [14]): 0.3 ± 0.17 µM
C=CC[C@@H](CC/C(C)=C/C=C/CC/C=C\c1coc(C(C)(C)C)n1)OC [JRC2] | – | – | – | – | – | – | – | – | – | – | % CBI 5 μM, (30° C.) [1]: (7 ± 5) %; % CBI 5 μM, 37° C. [1]: 0 ± 17%; % CBI 50 μM, (30° C.) [1]: (7 ± 6) %; % CBI 50 μM, 37° C. [1]: −52 ± 14%; % TPI 5 μM [2]: 51%; GI50 (MDA-MB231 cells; [9]): > 50 µM; GI50 (MDA-MB231 cells; [10]): 36 ± 22 µM; GI50 (PC-3 cells; [11]): > 50 µM; GI50 (PC-3 cells; [12]): > 50 µM; GI50 (2008 cells; [13]): > 50 µM; GI50 (2008 cells; [14]): > 50 µM
COc1ccc(OC)c(C(O)CCC(C)=CC=CCCC=Cc2cc(OC)c(OC)c(OC)c2)c1 (centres unmarked) [Compound 17f, (4E,6E,10Z)-11-(3,4,5-Trimethoxyphenyl)-4-methyl-1-(2,5-dimethoxy-phenyl)-2-ylundeca-4,6,10-trien-1-ol] | – | – | – | – | – | – | – | – | – | – | IC50 [1, 15]: > 50 µM; IC50 [1, 16]: > 50 µM; IC50 [2]: > 50 µM; GI50 (MDA-MB231 cells; [17]): 9.7 ± 1 µM; GI50 (PC-3 cells; [18]): > 50 µM; GI50 (2008 cells; [19]): 22 ± 5 µM
COc1ccc(/C=C\CC/C=C/C=C(\C)CCC(O)c2cc3ccccc3o2)c(OC)c1 (centres unmarked) [Compound 19AR3] | −50.0 ± 12.7 % | −29.0 ± 9.2 % | 60.4% | 6.43 ± 7.42 µM | 42.1 ± 1.4 µM | 49.1 ± 8.9 µM | > 50 µM | 17.7 ± 2.7 µM | 12.2 ± 2.7 µM | 0.7 ± 16.2% | –
COc1ccc(/C=C\CC/C=C/C=C(\C)CCC(O)c2cccs2)c(OC)c1 (centres unmarked) [Compound 19AR2] | −2.7 ± 6.5% | −31.7 ± 7.8 % | 51.8% | 7.18 ± 4.67 µM | 24 ± 1.2 µM | 37.3 ± 6.5 µM | > 50 µM | 25.9 ± 2.1 µM | 23.8 ± 1.1 µM | −0.7 ± 7.5% | –
C=CC[C@@H](CC/C(C)=C/C=C/CC/C=C\[C@@H]1COC(C(C)(C)C)=N1)OC [JRC1] | – | – | – | – | – | – | – | – | – | – | % CBI 5 μM, (30° C.) [1]: (14 ± 5) %; % CBI 5 μM, 37° C. [1]: 0 ± 7%; % CBI 50 μM, (30° C.) [1]: (80 ± 1) %; % CBI 50 μM, 37° C. [1]: 87 ± 1%; % TPI 5 μM [2]: 0%; GI50 (MDA-MB231 cells; [9]): 4.1 ± 1.1 µM; GI50 (MDA-MB231 cells; [10]): 1.8 ± 0.3 µM; GI50 (PC-3 cells; [11]): 8.8 ± 0.8 µM; GI50 (PC-3 cells; [12]): 6.2 ± 1.3 µM; GI50 (2008 cells; [13]): 3.7 ± 1.5 µM; GI50 (2008 cells; [14]): 0.45 ± 0.5 µM
COc1ccc(/C=C\CC/C=C/C=C(\C)CCC(O)c2cc3ccccc3s2)c(OC)c1 (centres unmarked) [Compound 19AR4] | −41.0 ± 17.8 % | −26.4 ± 14.7 % | 60.5% | 18.6 ± 3 µM | > 50 µM | > 50 µM | > 50 µM | 26.9 ± 3 µM | 29.8 ± 1.4 µM | 1.4 ± 18.5% | –
COc1cc(C=CCCC=CC=C(C)CCC(O)c2ccco2)cc(OC)c1OC (centres unmarked) [Compound 17a, (4E,1E,10Z)-11-(3,4,5-Trimethoxyphenyl)-4-methyl-1-furan-2-ylundeca-4,6,10-trien-1-ol] | – | – | – | – | – | – | – | – | – | – | IC50 [1, 15]: 32 ± 4 µM; IC50 [1, 16]: 9 ± 6 µM; IC50 [2]: 0.9 µM; GI50 (MDA-MB231 cells; [17]): 0.69 ± 0.1 µM; GI50 (PC-3 cells; [18]): 8 ± 4 µM; GI50 (2008 cells; [19]): 2.7 ± 1 µM
COc1cc(/C=C\CC/C=C/C=C(\C)CCC(O)c2cccs2)cc(OC)c1OC (centres unmarked) [Compound 19CR2] | 30.2 ± 7.3 % | 71.6 ± 2.8 % | >100% | 1.28 ± 0.12 µM | 0.083 ± 0.125 µM | 1.22 ± 0.22 µM | 0.875 ± 1.02 µM | 0.235 ± 0.021 µM | 0.38 ± 0.002 µM | – | –
COc1ccc(/C=C\CC/C=C/C=C(\C)CCC(O)c2cc(OC)ccc2OC)c(OC)c1 (centres unmarked) [Compound 19AR6] | −6.8 ± 13.1% | −22.8 ± 8.9 % | 31.2% | 18.3 ± 13.6 µM | 39.3 ± 11.3 µM | > 50 µM | > 50 µM | 32.9 ± 3.7 µM | 35.2 ± 2.4 µM | 1.7 ± 13.9% | –
COc1ccccc1C(O)CCC(C)=CC=CCCC=Cc1cc(OC)c(OC)c(OC)c1 (centres unmarked) [Compound 17d, (4E,6E,10Z)-11-(3,4,5-Trimethoxyphenyl)-4-methyl-1-(2-methoxy-phenyl)-2-ylundeca-4,6,10-trien-1-ol] | – | – | – | – | – | – | – | – | – | – | IC50 [1, 15]: 9 ± 5 µM; IC50 [1, 16]: 9 ± 4 µM; IC50 [2]: 1.2 µM; GI50 (MDA-MB231 cells; [17]): 0.34 ± 0.03 µM; GI50 (PC-3 cells; [18]): 0.62 ± 0.2 µM; GI50 (2008 cells; [19]): 0.33 ± 0.02 µM
COc1ccccc1C(O)CC/C(C)=C/C=C/CC/C=C\c1cc(OC)c(OC)c(OC)c1 (centres unmarked) [Compound 19CR5] | 12.5 ± 8.1% | 68.7 ± 1.1 % | 74.6% | 0.204 ± 0.046 µM | 0.086 ± 0.146 µM | 1.12 ± 0.04 µM | 0.596 ± 1.25 µM | 0.199 ± 0.036 µM | 0.204 ± 0.112 µM | – | –
